The text below walks through data of patent US7271253B1, “Safe process for the preparation of balsalazide” (Apotex Pharmachem Inc., priority 2006, dated 2007).

Molecules are shown by their SMILES.

Data set [1] can be described thus: Solubility in water of N-(4-aminobenzoyl)-β-alanine salts. In kind it is physicochemical. An excerpt: According to one aspect of the invention, a more soluble salt of N-(4-aminobenzoyl)-β-alanine is provided which overcomes the use of the previous forms which were virtually insoluble in water.
(for example as depicted in FIG. 1). This latter temperature was selected as it provided for optimal reaction.
The preferred concentration of the aqueous sulfonic acid solution was about 4% to about 14%, more preferably about 7% to about 12%, and most preferably about 9%. The fact that higher concentrations were preferred, despite the decreased solubility of the salt, was a consequence of the fact that operationally, the use of about 9% sulfonic acid concentrations permitted proportionally lower reaction volumes, without compromising safety, and was advantageous for commercial scale-up.
FIG. 3—A comparison of the relative solubility of mesylate in differing concentrations of aqueous methanesulfonic acid.

The conditions of data set [2]: RSST, different reaction temperatures, FIG. 1. An excerpt: The decomposition of the intermediate was indicated by the pressure increase.
FIG. 1—Plot showing the rate of decomposition of diazonium mesylate at different temperatures. Increased pressure is indicative of the decomposition of the mesylate to form nitrogen gas.

The conditions of data set [3]: DSC, FIG. 2.

In the case of `Nc1ccc(C(=O)NCCC(=O)O)cc1` [chloride, N-(4-aminobenzoyl)-β-alanine], the solubility in water entry in data set [1] was “poorly soluble”; in data set [1] (listed as hydrochloride salt of 4-aminobenzoyl-β-alanine) it was “poor solubility”.

Take `CS(=O)(=O)[O-].N#[N+]c1ccc(C(=O)NCCC(=O)O)cc1` [diazonium mesylate, N-(4-diazoniumbenzoyl)-β-alanine sulfonate salt]: the “temperature at which decomposition may start” value in data set [2] amounted to 25 °C. For the same compound, the “decomposition energy of solid relative to solution” value in data set [3] is recorded as “almost ten-fold higher”.

Take `Nc1ccc(C(=O)NCCC(=O)O)cc1` [free-base, N-(4-aminobenzoyl)-β-alanine]: the “solubility at higher concentrations of sulfonic acid” value in data set [1] (differing concentrations of aqueous methanesulfonic acid, FIG. 3) was “decrease in the solubility”.

`CS(=O)(=O)O.Nc1ccc(C(=O)NCCC(=O)O)cc1` [methanesulfonic acid salt, N-(4-ammoniumbenzoyl)-β-alanine sulfonate salt]: the solubility in water entry in data set [1] was “unexpectedly high water solubility”.
